From patent publication US6613718B2, “Aryl ether derivatives and processes for their preparation and herbicidal and desiccant compositions containing them” (Ishihara Sangyo Kaisha, Ltd., priority 2001, dated 2003)

Assays:
Assay type in all cases: in vivo
Settings in all cases: 14 days after application
[1] = tested on: field corn (Zea mays L., var. Dekalb 535, CORN); experiment: Post-emerge greenhouse screening, crop safety / corn selectivity (phytotoxicity rating)
Method in brief: (§1)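 For foliar (post-emergence) testing, 2-3 leaf seedlings were sprayed with acetone solutions including 0.25% v/v non-ionic surfactant, rates 15–1000 g ai/ha, then bottom-watered. Soil-applied (pre-emergence) tests used pots sown one day before spraying. Ratings, 0–100, were made at 14 days.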

[2] = tested on: soybean (Glycine max L., var. Pella 86, SOY); experiment: Post-emerge greenhouse screening, crop safety (phytotoxicity rating)
Method in brief: as §1

[3] = tested on: upland rice (Oryza sp., var.Tebonnet, RICE); experiment: as above
Method in brief: as §1

[4] = tested on: soybean (Glycine max L., var. Pella 86, SOY); experiment: Pre-emerge greenhouse screening, crop safety (phytotoxicity rating)
Method in brief: as §1

[5] = tested on: upland rice (Oryza sp., var.Tebonnet, RICE); experiment: as above
Method in brief: as §1

[6] = tested on: field corn (Zea mays L., var. Dekalb 535, CORN); experiment: as above
Method in brief: as §1

[7] = tested on: johnsongrass (Sorghum halepense, SORHA); experiment: Post-emerge greenhouse herbicide activity screening, phytotoxicity rating
Method in brief: as §1

[8] = tested on: barnyardgrass (Echinochloa crus-galli, ECHCG); experiment: as above
Method in brief: as §1

[9] = tested on: lambsquarters (Chenopodium album, CHEAL); experiment: as above
Method in brief: as §1

[10] = tested on: ivyleaf morningglory (Ipomoea hederacea, IPOHE); experiment: as above
Method in brief: as §1

[11] = tested on: velvetleaf (Abutilon theophrasti, ABUTH); experiment: as above
Method in brief: as §1

[12] = tested on: common ragweed (Ambrosia artemisiifolia L., AMBEL); experiment: as above
Method in brief: as §1

[13] = tested on: large crabgrass (Digitaria sanguinalis, DIGSA); experiment: as above
Method in brief: as §1

[14] = tested on: sicklepod (Cassia obtusifolia, CASOB); experiment: as above
Method in brief: as §1

[15] = tested on: green foxtail (Setaria viridis, SETVI); experiment: as above
Method in brief: as §1

[16] = tested on: redroot pigweed (Amaranthus retroflexus, AMARE); experiment: as above
Method in brief: as §1

[17] = tested on: johnsongrass (Sorghum halepense, SORHA); experiment: Pre-emerge greenhouse herbicide activity screening, phytotoxicity rating
Method in brief: as §1

[18] = tested on: barnyardgrass (Echinochloa crus-galli, ECHCG); experiment: as above
Method in brief: as §1

[19] = tested on: lambsquarters (Chenopodium album, CHEAL); experiment: as above
Method in brief: as §1

[20] = tested on: ivyleaf morningglory (Ipomoea hederacea, IPOHE); experiment: as above
Method in brief: as §1

[21] = tested on: velvetleaf (Abutilon theophrasti, ABUTH); experiment: as above
Method in brief: as §1

[22] = tested on: common ragweed (Ambrosia artemisiifolia L., AMBEL); experiment: as above
Method in brief: as §1

[23] = tested on: large crabgrass (Digitaria sanguinalis, DIGSA); experiment: as above
Method in brief: as §1

[24] = tested on: sicklepod (Cassia obtusifolia, CASOB); experiment: as above
Method in brief: as §1

[25] = tested on: green foxtail (Setaria viridis, SETVI); experiment: as above
Method in brief: as §1

[26] = tested on: redroot pigweed (Amaranthus retroflexus, AMARE); experiment: as above
Method in brief: as §1

Cn1c(C(F)(F)F)cc(=O)n(-c2cc(Oc3ccccc3O)c(C#N)cc2F)c1=S [Compound 1-70]
99: IPOHE phytotoxicity rating (0-100 scale) ([10]; 125 g ai/ha) | IPOHE phytotoxicity rating (0-100 scale) ([10]; 250 g ai/ha) | SORHA phytotoxicity rating (0-100 scale) ([17]; 250 g ai/ha) | IPOHE phytotoxicity rating (0-100 scale) ([20]; 125 g ai/ha) | IPOHE phytotoxicity rating (0-100 scale) ([20]; 250 g ai/ha) | AMBEL phytotoxicity rating (0-100 scale) ([22]; 250 g ai/ha) | DIGSA phytotoxicity rating (0-100 scale) ([23]; 250 g ai/ha)
25: SORHA phytotoxicity rating (0-100 scale) ([7]; 250 g ai/ha)
65: SOY crop damage, phytotoxicity rating (0-100 scale) ([2]; 250 g ai/ha) | AMBEL phytotoxicity rating (0-100 scale) ([12]; 250 g ai/ha) | CASOB phytotoxicity rating (0-100 scale) ([14]; 125 g ai/ha) | CASOB phytotoxicity rating (0-100 scale) ([14]; 250 g ai/ha) | SETVI phytotoxicity rating (0-100 scale) ([15]; 125 g ai/ha) | SORHA phytotoxicity rating (0-100 scale) ([17]; 125 g ai/ha) | CASOB phytotoxicity rating (0-100 scale) ([24]; 125 g ai/ha)
75: SETVI phytotoxicity rating (0-100 scale) ([15]; 250 g ai/ha) | SETVI phytotoxicity rating (0-100 scale) ([25]; 125 g ai/ha)
0: CORN crop damage, phytotoxicity rating (0-100 scale) ([1]; 125 g ai/ha) | CORN crop damage, phytotoxicity rating (0-100 scale) ([1]; 250 g ai/ha) | RICE crop damage, phytotoxicity rating (0-100 scale) ([3]; 125 g ai/ha) | RICE crop damage, phytotoxicity rating (0-100 scale) ([3]; 250 g ai/ha) | SORHA phytotoxicity rating (0-100 scale) ([7]; 125 g ai/ha)
80: SOY crop damage, phytotoxicity rating (0-100 scale) ([4]; 250 g ai/ha) | ECHCG phytotoxicity rating (0-100 scale) ([8]; 250 g ai/ha)
100: CHEAL phytotoxicity rating (0-100 scale) ([9]; 125 g ai/ha) | CHEAL phytotoxicity rating (0-100 scale) ([9]; 250 g ai/ha) | ABUTH phytotoxicity rating (0-100 scale) ([11]; 125 g ai/ha) | ABUTH phytotoxicity rating (0-100 scale) ([11]; 250 g ai/ha) | AMARE phytotoxicity rating (0-100 scale) ([16]; 125 g ai/ha) | AMARE phytotoxicity rating (0-100 scale) ([16]; 250 g ai/ha) | CHEAL phytotoxicity rating (0-100 scale) ([19]; 125 g ai/ha) | CHEAL phytotoxicity rating (0-100 scale) ([19]; 250 g ai/ha) | ABUTH phytotoxicity rating (0-100 scale) ([21]; 125 g ai/ha) | ABUTH phytotoxicity rating (0-100 scale) ([21]; 250 g ai/ha) | SETVI phytotoxicity rating (0-100 scale) ([25]; 250 g ai/ha) | AMARE phytotoxicity rating (0-100 scale) ([26]; 125 g ai/ha) | AMARE phytotoxicity rating (0-100 scale) ([26]; 250 g ai/ha)
30: SOY crop damage, phytotoxicity rating (0-100 scale) ([2]; 125 g ai/ha) | SOY crop damage, phytotoxicity rating (0-100 scale) ([4]; 125 g ai/ha) | DIGSA phytotoxicity rating (0-100 scale) ([13]; 250 g ai/ha)
85: ECHCG phytotoxicity rating (0-100 scale) ([18]; 125 g ai/ha) | DIGSA phytotoxicity rating (0-100 scale) ([23]; 125 g ai/ha) | CASOB phytotoxicity rating (0-100 scale) ([24]; 250 g ai/ha)
60: AMBEL phytotoxicity rating (0-100 scale) ([12]; 125 g ai/ha)
50: RICE crop damage, phytotoxicity rating (0-100 scale) ([5]; 125 g ai/ha)
55: RICE crop damage, phytotoxicity rating (0-100 scale) ([5]; 250 g ai/ha) | ECHCG phytotoxicity rating (0-100 scale) ([8]; 125 g ai/ha)
95: ECHCG phytotoxicity rating (0-100 scale) ([18]; 250 g ai/ha)
15: CORN crop damage, phytotoxicity rating (0-100 scale) ([6]; 125 g ai/ha) | CORN crop damage, phytotoxicity rating (0-100 scale) ([6]; 250 g ai/ha) | DIGSA phytotoxicity rating (0-100 scale) ([13]; 125 g ai/ha)
90: AMBEL phytotoxicity rating (0-100 scale) ([22]; 125 g ai/ha)

COc1ccccc1Oc1cc(-n2c(=O)cc(C(F)(F)F)n(C)c2=S)c(F)cc1C#N [Compound 1-71]
5: CORN crop damage, phytotoxicity rating (0-100 scale) ([6]; 250 g ai/ha)
99: SORHA phytotoxicity rating (0-100 scale) ([17]; 125 g ai/ha)
80: AMBEL phytotoxicity rating (0-100 scale) ([12]; 125 g ai/ha)
15: SORHA phytotoxicity rating (0-100 scale) ([7]; 250 g ai/ha)
100: CHEAL phytotoxicity rating (0-100 scale) ([9]; 125 g ai/ha) | CHEAL phytotoxicity rating (0-100 scale) ([9]; 250 g ai/ha) | IPOHE phytotoxicity rating (0-100 scale) ([10]; 125 g ai/ha) | IPOHE phytotoxicity rating (0-100 scale) ([10]; 250 g ai/ha) | ABUTH phytotoxicity rating (0-100 scale) ([11]; 125 g ai/ha) | ABUTH phytotoxicity rating (0-100 scale) ([11]; 250 g ai/ha) | AMARE phytotoxicity rating (0-100 scale) ([16]; 125 g ai/ha) | AMARE phytotoxicity rating (0-100 scale) ([16]; 250 g ai/ha) | SORHA phytotoxicity rating (0-100 scale) ([17]; 250 g ai/ha) | ECHCG phytotoxicity rating (0-100 scale) ([18]; 125 g ai/ha) | ECHCG phytotoxicity rating (0-100 scale) ([18]; 250 g ai/ha) | CHEAL phytotoxicity rating (0-100 scale) ([19]; 125 g ai/ha) | CHEAL phytotoxicity rating (0-100 scale) ([19]; 250 g ai/ha) | IPOHE phytotoxicity rating (0-100 scale) ([20]; 125 g ai/ha) | IPOHE phytotoxicity rating (0-100 scale) ([20]; 250 g ai/ha) | ABUTH phytotoxicity rating (0-100 scale) ([21]; 125 g ai/ha) | ABUTH phytotoxicity rating (0-100 scale) ([21]; 250 g ai/ha) | AMBEL phytotoxicity rating (0-100 scale) ([22]; 125 g ai/ha) | AMBEL phytotoxicity rating (0-100 scale) ([22]; 250 g ai/ha) | DIGSA phytotoxicity rating (0-100 scale) ([23]; 125 g ai/ha) | DIGSA phytotoxicity rating (0-100 scale) ([23]; 250 g ai/ha) | CASOB phytotoxicity rating (0-100 scale) ([24]; 250 g ai/ha) | SETVI phytotoxicity rating (0-100 scale) ([25]; 125 g ai/ha) | SETVI phytotoxicity rating (0-100 scale) ([25]; 250 g ai/ha) | AMARE phytotoxicity rating (0-100 scale) ([26]; 125 g ai/ha) | AMARE phytotoxicity rating (0-100 scale) ([26]; 250 g ai/ha)
85: SETVI phytotoxicity rating (0-100 scale) ([15]; 125 g ai/ha) | SETVI phytotoxicity rating (0-100 scale) ([15]; 250 g ai/ha)
60: SOY crop damage, phytotoxicity rating (0-100 scale) ([4]; 250 g ai/ha) | DIGSA phytotoxicity rating (0-100 scale) ([13]; 250 g ai/ha)
35: ECHCG phytotoxicity rating (0-100 scale) ([8]; 125 g ai/ha)
65: RICE crop damage, phytotoxicity rating (0-100 scale) ([5]; 250 g ai/ha) | ECHCG phytotoxicity rating (0-100 scale) ([8]; 250 g ai/ha)
90: AMBEL phytotoxicity rating (0-100 scale) ([12]; 250 g ai/ha)
0: CORN crop damage, phytotoxicity rating (0-100 scale) ([1]; 125 g ai/ha) | CORN crop damage, phytotoxicity rating (0-100 scale) ([1]; 250 g ai/ha) | RICE crop damage, phytotoxicity rating (0-100 scale) ([3]; 125 g ai/ha) | RICE crop damage, phytotoxicity rating (0-100 scale) ([3]; 250 g ai/ha) | CORN crop damage, phytotoxicity rating (0-100 scale) ([6]; 125 g ai/ha) | SORHA phytotoxicity rating (0-100 scale) ([7]; 125 g ai/ha)
45: SOY crop damage, phytotoxicity rating (0-100 scale) ([4]; 125 g ai/ha)
95: CASOB phytotoxicity rating (0-100 scale) ([24]; 125 g ai/ha)
50: SOY crop damage, phytotoxicity rating (0-100 scale) ([2]; 125 g ai/ha) | RICE crop damage, phytotoxicity rating (0-100 scale) ([5]; 125 g ai/ha) | DIGSA phytotoxicity rating (0-100 scale) ([13]; 125 g ai/ha) | CASOB phytotoxicity rating (0-100 scale) ([14]; 125 g ai/ha) | CASOB phytotoxicity rating (0-100 scale) ([14]; 250 g ai/ha)
75: SOY crop damage, phytotoxicity rating (0-100 scale) ([2]; 250 g ai/ha)
